Here are results for two compounds from US4730068A, “Tumor retarding (1,2-diphenyl-ethylenediamine)-platinum(II)-complexes” (Asta-Werke Aktiengesellschaft, priority 1985, dated 1988).

Series [1] relates to DMBA-induced hormone dependent rat mammary carcinoma. As to the kind of experiment: DMBA-induced hormone dependent mammary carcinoma of the rat. The class given is in vivo. The following applies: 3×6.5 mg/kg body weight/week. The protocol: Mouse leukemia P388, hormone independent human breast cancer cell line MDA-MB 231, hormone dependent human breast cancer cell line MCF7, hormone dependent mouse mammary carcinoma MXT, DMBA induced hormone dependent rat mammary carcinoma (DMBA is dimethylbenz[a]-anthracene).
For example on the mammary cancer of the rat, which was induced by 7, 12-dimethylbenz [a]-anthracene (DMBA), with the compound of Example 18 at a dosage of 3×6.5 mg/kg body weight/week there was determined with 88% of the tumors a complete remission. In the testing on the hormone independent human mammary tumor cell line MDA-MB 231 the compounds of the invention show for example in vitro in concentrations between 10^-5 and 10^-7 moles/liter a 50% inhibition of the growth of this cell line. The inhibition of [^3 H]-thymidine incorporation is of the same order of magnitude. The compounds of the invention act on the lymphocytic leukemia P388 (mouse) for example in dosages between 10 and 50 mg/kg (intraperitoneal application).

A short description of the next series: water solubility. In kind it is physicochemical.

Consider `NC(c1c(Cl)cc(O)cc1Cl)C(N)c1c(Cl)cc(O)cc1Cl.[Cl-].[Cl-].[Pt+2]` (stereo not drawn) [Example 18, meso-1,2-bis(2,6-dichloro-4-hydroxyphenyl)-ethylenediamine-dichloro-platinum(II)], for which the “tumors with complete remission” value in series [1] was 88%.
Regarding “Diaquo-meso-1,2-bis(2,6-dichloro-4-hydroxyphenyl)-ethylene-diamine-platinum(II)-sulfate [Example 34]”, in the series “water solubility”, the solubility in water entry was “soluble in water”.
